The values that follow are results of earlier work, collected in patent publication US20060234348A1, “Method of production of RNA polymerase protein” (priority 2005, published 2006).

The data set deals with T1, RNase A (Bos taurus, UniProt P61823).
T1 sequence (P61823 27-150): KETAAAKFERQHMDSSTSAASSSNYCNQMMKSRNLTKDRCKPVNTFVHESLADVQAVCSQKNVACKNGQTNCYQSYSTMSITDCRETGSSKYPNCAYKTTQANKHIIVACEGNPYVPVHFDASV
The settings on record: RNase A 10 μg/ml, 4 mM DTT, 4° C. for 20 minutes.

Molecules are shown by their SMILES.

Take `O[C@H](CS)[C@H](O)CS` (racemic) [DTT, dithiothreitol]: the “conversion of polyribosomes to monoribosomes by RNase A” value is “reduced the conversion of polyribosomes to monoribosomes”.
